Source: US20090169585A1, “Resveratrol-Containing Compositions And Their Use In Modulating Gene Product Concentration Or Activity” (Resveratrol Partners, LLC, priority 2003, published 2009)
Like-named read-outs stand apart in the source and are kept apart here.

How the values were obtained:
[1] = tested on: rhabdomyosarcoma cells; conditions: low dosage; cited from earlier work
[2] = tested on: injected tumors; conditions: mice with injected tumors; cited from earlier work
[3] = tested on: human umbilical vein epithelial cells; conditions: of 10,000 genes probed; cited from earlier work
[4] = tested on: expression of 20,341 genes in brain tissue; experiment: Gene expression in brain tissue; type: in vivo, mice
[5] = tested on: genes of the oxidative phosphorylation pathway (GO:0006119); experiment: Cardiac gene expression array: oxidative phosphorylation genes; type: in vivo, mice; conditions: mouse cardiac tissue vs control
[6] = tested on: genes involved in 220 biological processes; experiment: Biochemical pathways / biological processes affected (Table 5); type: in vivo, mice
[7] = 1100 IU, 4-year period; cited from earlier work
[8] = tested on: breast cancer cells; conditions: cited from earlier work
[9] = 3500 IU per day; cited from earlier work
[10] = 2000 IU per day; cited from earlier work

For `O=P(O)(O)OC1C(OP(=O)(O)O)C(OP(=O)(O)O)C(OP(=O)(O)O)C(OP(=O)(O)O)C1OP(=O)(O)O` (centres unmarked) [IP6, (2,3,4,5,6-pentaphosphonooxycyclohexyl) dihydrogen phosphate], the “suppression of growth of rhabdomyosarcoma cells” value [1] is listed as 50% and the “tumor size vs non-treated mice” value [2] is listed as 50 times smaller.
For `COc1cc(/C=C/C(=O)O)ccc1O` [ferulic acid], the “genes with greater than 2-fold down-regulation” value [3] is given as 363 genes and the “genes with greater than 2-fold up-regulation” value [3] is given as 233 genes.
In the case of `O=c1c(O)c(-c2ccc(O)c(O)c2)oc2cc(O)cc(O)c12` [quercetin, 3,3′,4′,5,7-pentahydroxy-2-phenylchromen-4-one], the “genes with greater than 2-fold down-regulation” value [3] is given as 363 genes and the “genes with greater than 2-fold up-regulation” value [3] is given as 233 genes.
For `Oc1ccc(/C=C/c2cc(O)cc(O)c2)cc1` [resveratrol, 3,4′,5-trihydroxy-trans-stilbene], the “number of genes exhibiting altered expression” value ([4]; animals receiving only this treatment, P<0.01) was 424 genes, the “number of genes exhibiting altered expression” value ([4]; resveratrol and calorie reduced diet) was 10 genes and the “FC Cox4i2” value [5] was 1.50. The “FC Ndufaf1” value [5] was −1.20, the “FC Ndufc1” value [5] was 1.20 and the “FC Ndufc2” value [5] was −1.30. For the same molecule, the “FC Ndufs2” value [5] was 1.10, the “Genes changed: Telomere Maintenance” value ([6]; GO: 0000723, 17 genes in series, P<0.05) was 3 and the “Genes changed: Endochondral Ossification” value ([6]; GO: 0001958, 8 genes in series, P<0.05) was 2. The “Genes changed: Carbohydrate Metabolic Process” value ([6]; GO: 0005975, 316 genes in series, P<0.05) was 21, the “Genes changed: Polysaccharide Metabolic Process” value ([6]; GO: 0005976, 42 genes in series, P<0.05) was 9 and the “Genes changed: Glycogen Metabolic Process” value ([6]; GO: 0005977, 31 genes in series, P<0.05) was 7. The “Genes changed: Generation Of Precursor Metabolites And Energy” value ([6]; GO: 0006091, 390 genes in series, P<0.05) was 24, the “Genes changed: Energy Reserve Metabolic Process” value ([6]; GO: 0006112, 35 genes in series, P<0.05) was 7 and the “Genes changed: DNA Repair” value ([6]; GO: 0006281, 178 genes in series, P<0.05) was 13. The “Genes changed: Transcription Termination” value ([6]; GO: 0006353, 6 genes in series, P<0.05) was 2, the “Genes changed: Translation” value ([6]; GO: 0006412, 338 genes in series, P<0.05) was 25 and the “Genes changed: Translational Initiation” value ([6]; GO: 0006413, 40 genes in series, P<0.05) was 6. The “Genes changed: Regulation Of Translational Initiation” value ([6]; GO: 0006446, 20 genes in series, P<0.05) was 4, the “Number of genes affected: Protein Folding” value ([6]; GO: 0006457, 124 genes in series, P<0.05) was 13 and the “Genes changed: Ubiquitin-Dependent Protein Catabolic Process” value ([6]; GO: 0006511, 109 genes in series, P<0.05) was 9. The “Genes changed: Ubiquitin Cycle” value ([6]; GO: 0006512, 356 genes in series, P<0.05) was 27, the “Genes changed: Polyamine Biosynthetic Process” value ([6]; GO: 0006596, 5 genes in series, P<0.05) was 2 and the “Genes changed: Protein Targeting” value ([6]; GO: 0006605, 161 genes in series, P<0.05) was 12. For the same molecule, the “Genes changed: Protein Targeting To Peroxisome” value ([6]; GO: 0006625, 5 genes in series, P<0.05) was 2, the “Genes changed: Copper Ion Transport” value ([6]; GO: 0006825, 9 genes in series, P<0.05) was 3 and the “Genes changed: Intracellular Protein Transport” value ([6]; GO: 0006886, 357 genes in series, P<0.05) was 26. For the same molecule, the “Genes changed: ER To Golgi Vesicle-Mediated Transport” value ([6]; GO: 0006888, 16 genes in series, P<0.05) was 3, the “Genes changed: Caspase Activation” value ([6]; GO: 0006919, 16 genes in series, P<0.05) was 3 and the “Genes changed: Response To DNA Damage Stimulus” value ([6]; GO: 0006974, 217 genes in series, P<0.05) was 15. For the same molecule, the “Genes changed: ER Overload Response” value ([6]; GO: 0006983, 5 genes in series, P<0.05) was 2, the “Number of genes affected: Organelle Organization And Biogenesis” value ([6]; GO: 0006996, 897 genes in series, P<0.05) was 53 and the “Number of genes affected: Cytoskeleton Organization And Biogenesis” value ([6]; GO: 0007010, 403 genes in series, P<0.05) was 26. For the same molecule, the “Genes changed: Microtubule-Based Process” value ([6]; GO: 0007017, 155 genes in series, P<0.05) was 12, the “Number of genes affected: Microtubule-Based Movement” value ([6]; GO: 0007018, 72 genes in series, P<0.05) was 9 and the “Genes changed: Mitotic Metaphase/Anaphase Transition” value ([6]; GO: 0007091, 8 genes in series, P<0.05) was 2. The “Genes changed: Female Meiosis” value ([6]; GO: 0007143, 8 genes in series, P<0.05) was 2, the “Genes changed: Transmembrane Receptor Protein Serine/Threonine Kinase Signaling Pathway” value ([6]; GO: 0007178, 75 genes in series, P<0.05) was 7 and the “Genes changed: Small Gtpase Mediated Signal Transduction” value ([6]; GO: 0007264, 320 genes in series, P<0.05) was 22. The “Number of genes affected: Regulation Of Actin Polymerization And/Or Depolymerization” value ([6]; GO: 0008064, 30 genes in series, P<0.05) was 4, the “Genes changed: Protein Localization” value ([6]; GO: 0008104, 663 genes in series, P<0.05) was 38 and the “Number of genes affected: Actin Polymerization And/Or Depolymerization” value ([6]; GO: 0008154, 39 genes in series, P<0.05) was 6. For the same molecule, the “Genes changed: Isoprenoid Biosynthetic Process” value ([6]; GO: 0008299, 19 genes in series, P<0.05) was 3, the “Genes changed: RNA Splicing” value ([6]; GO: 0008380, 162 genes in series, P<0.05) was 12 and the “Genes changed: Biosynthetic Process” value ([6]; GO: 0009058, 979 genes in series, P<0.05) was 60. The “Genes changed: Macromolecule Biosynthetic Process” value ([6]; GO: 0009059, 525 genes in series, P<0.05) was 35, the “Genes changed: Protein Transport” value ([6]; GO: 0015031, 581 genes in series, P<0.05) was 38 and the “Genes changed: Modification-Dependent Protein Catabolic Process” value ([6]; GO: 0019941, 111 genes in series, P<0.05) was 9. For the same molecule, the “Number of genes affected: Actin Filament Polymerization” value ([6]; GO: 0030041, 17 genes in series, P<0.05) was 3, the “Number of genes affected: Regulation Of Actin Filament Length” value ([6]; GO: 0030832, 31 genes in series, P<0.05) was 4 and the “Genes changed: Cellular Response To Stress” value ([6]; GO: 0033554, 14 genes in series, P<0.05) was 3. For the same molecule, the “Genes changed: Positive Regulation Of Enzyme Activity” value ([6]; GO: 0043085, 40 genes in series, P<0.05) was 5, the “Genes changed: Positive Regulation Of Caspase Activity” value ([6]; GO: 0043280, 17 genes in series, P<0.05) was 3 and the “Genes changed: Regulation Of Caspase Activity” value ([6]; GO: 0043281, 27 genes in series, P<0.05) was 5. For the same molecule, the “Genes changed: Cellular Biosynthetic Process” value ([6]; GO: 0044249, 710 genes in series, P<0.05) was 45, the “Genes changed: Cellular Carbohydrate Metabolic Process” value ([6]; GO: 0044262, 221 genes in series, P<0.05) was 18 and the “Genes changed: Establishment Of Protein Localization” value ([6]; GO: 0045184, 610 genes in series, P<0.05) was 38. For the same molecule, the “Genes changed: Interferon Type I Biosynthetic Process” value ([6]; GO: 0045351, 6 genes in series, P<0.05) was 2, the “Genes changed: Cell Redox Homeostasis” value ([6]; GO: 0045454, 40 genes in series, P<0.05) was 6 and the “Genes changed: Regulation Of B Cell Differentiation” value ([6]; GO: 0045577, 8 genes in series, P<0.05) was 2. For the same molecule, the “Genes changed: Positive Regulation Of JNK Cascade” value ([6]; GO: 0046330, 8 genes in series, P<0.05) was 2, the “Number of genes affected: Intracellular Transport” value ([6]; GO: 0046907, 523 genes in series, P<0.05) was 43 and the “Genes changed: Golgi Vesicle Transport” value ([6]; GO: 0048193, 37 genes in series, P<0.05) was 6. For the same molecule, the “Genes changed: Epithelial Cell Proliferation” value ([6]; GO: 0050673, 30 genes in series, P<0.05) was 4, the “Number of genes affected: Regulation Of Catalytic Activity” value ([6]; GO: 0050790, 241 genes in series, P<0.05) was 21 and the “Genes changed: Barbed-End Actin Filament Capping” value ([6]; GO: 0051016, 17 genes in series, P<0.05) was 3. For the same molecule, the “Number of genes affected: Protein Polymerization” value ([6]; GO: 0051258, 32 genes in series, P<0.05) was 6, the “Number of genes affected: Establishment Of Cellular Localization” value ([6]; GO: 0051649, 653 genes in series, P<0.05) was 45 and the “biological processes with affected genes” value ([6]; resveratrol to calorie restricted mice) was “failed to affect any genes in any of these processes”. The “share of the 220 biological processes with affected genes” value ([6]; this treatment, P<0.05) was 10%.
For `C=C1CC[C@H](O)C/C1=C/C=C1\CCC[C@]2(C)[C@@H]([C@H](C)CCCC(C)C)CC[C@@H]12` [vitamin D3, cholecalciferol], the “reduction in cancer risk” value [7] is listed as 60-77%, the “reduction of the number of breast cancer cells” value ([8]; higher concentrations of vitamin D3 alone, lab dish) is listed as “about 25%” and the “reduction of the number of breast cancer cells” value ([8]; higher concentrations of vitamin D3 combined with resveratrol) is listed as 50%. The “breast tumor cell growth” value ([8]; low-dose vitamin D3 alone) was “does not reduce breast tumor cell growth” and the “decline of tumor cell numbers” value ([8]; low-dose vitamin D3 combined with resveratrol) was 40%.
For vitamin D, the “risk for breast cancer” value [9] is given as “halved” and the “risk of colon cancer” value [10] is given as “halved”.
